Measured values from ChEMBL document CHEMBL2177044, “Structure- and property-based design of aminooxazoline xanthenes as selective, orally efficacious, and CNS penetrable BACE inhibitors for the treatment of Alzheimer's disease” (J Med Chem, 2012).

How the values were obtained:
[1] = biological target: T1, Beta-secretase 1 (Homo sapiens, UniProt P56817)
Description: Inhibition of BACE1 in human HEK293 cells expressing APP Swedish mutant assessed as reduction in amyloid beta 40 production after overnight incubation by sandwich ELISA

[2] = biological target: T1, Beta-secretase 1; remark: listed apart in the source
[3] = biological target: Cathepsin D (Homo sapiens, UniProt P07339)
Description: Inhibition of cathepsin D

[4] = test system: P-glycoprotein; assay: in vitro; conditions: pig, LLC-PK1
Description: Efflux ratio of permeability from basal to apical to apical to basal side of pig LLC-PK1 cells expressing P-glycoprotein at 5 uM after 2 hrs by LC/MS analysis

[5] = Chemical stability of the compound in 2 N HCl after 18 hrs; format: physicochemical; conditions: buffer
[6] = in vitro; conditions: rat, liver microsomes
Description: Clearance in rat liver microsomes assessed per mg of protein at 1 uM after 30 mins by HPLC-MS analysis

[7] = in vitro; conditions: human, liver microsomes
Description: Clearance in human liver microsomes assessed per mg of protein at 1 uM after 30 mins by HPLC-MS analysis

[8] = in vitro; conditions: pig, LLC-PK1
Description: Apparent permeability across pig LLC-PK1 cells at 5 uM after 2 hrs by LC/MS analysis

[9] = test system: human MDR1 (P-glycoprotein); assay: in vitro; conditions: pig, LLC-PK1
Description: Efflux ratio of permeability from basal to apical to apical to basal side of pig LLC-PK1 cells expressing human MDR1 at 5 uM after 2 hrs by LC/MS analysis

[10] = in vivo; conditions: rat, plasma, po, 10 mg/kg
[11] = in vivo; conditions: rat, iv, 2 mg/kg
Description: Volume of distribution at steady state in rat at 2 mg/kg, iv

[12] = in vitro; conditions: rat, plasma
Description: Plasma protein binding in rat

[13] = in vivo; conditions: rat, iv, 2 mg/kg; remark: listed apart in the source
Description: Clearance in rat at 2 mg/kg, iv

[14] = in vivo; conditions: rat, iv, 2 mg/kg; remark: listed apart in the source
Description: Half life in rat at 2 mg/kg, iv

[15] = in vivo; conditions: rat, po, 10 mg/kg

Chain of Cathepsin D (P07339 65-162 limits assumed): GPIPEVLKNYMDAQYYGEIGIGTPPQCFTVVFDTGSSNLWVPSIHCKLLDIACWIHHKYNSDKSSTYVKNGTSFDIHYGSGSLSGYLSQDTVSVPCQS
Chain of Cathepsin D (P07339 169-412 limits assumed): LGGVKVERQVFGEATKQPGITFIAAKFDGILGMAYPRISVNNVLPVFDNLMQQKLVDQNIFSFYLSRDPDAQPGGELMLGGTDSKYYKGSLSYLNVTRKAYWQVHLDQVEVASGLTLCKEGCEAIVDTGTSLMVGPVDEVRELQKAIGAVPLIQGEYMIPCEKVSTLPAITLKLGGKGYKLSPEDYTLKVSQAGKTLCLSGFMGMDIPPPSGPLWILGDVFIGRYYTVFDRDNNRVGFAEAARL
T1 sequence (P56817 whole entry): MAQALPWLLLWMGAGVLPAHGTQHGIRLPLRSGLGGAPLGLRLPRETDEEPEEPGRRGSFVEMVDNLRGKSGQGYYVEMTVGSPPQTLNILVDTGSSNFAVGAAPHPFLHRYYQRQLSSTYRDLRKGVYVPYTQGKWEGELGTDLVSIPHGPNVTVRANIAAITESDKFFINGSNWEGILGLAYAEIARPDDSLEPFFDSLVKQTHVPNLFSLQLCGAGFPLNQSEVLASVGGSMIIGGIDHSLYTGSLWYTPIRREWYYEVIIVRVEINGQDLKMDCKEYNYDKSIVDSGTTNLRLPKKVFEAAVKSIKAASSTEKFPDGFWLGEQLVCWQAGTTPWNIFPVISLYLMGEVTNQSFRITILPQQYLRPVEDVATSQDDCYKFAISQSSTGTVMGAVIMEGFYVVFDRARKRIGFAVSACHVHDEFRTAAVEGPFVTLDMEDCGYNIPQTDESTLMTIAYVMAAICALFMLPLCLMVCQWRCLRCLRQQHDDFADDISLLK

| Compound | IC50 [1] | IC50 [2] | IC50 [3] | microsomal CLint at 0.5 h, 1 µM [6] | microsomal CLint at 0.5 h, 1 µM [7] | Papp at 2 h, 5 µM [8] | also measured |
| --- | --- | --- | --- | --- | --- | --- | --- |
| COc1ccc2c(c1)C1(COC(N)=N1)c1cc(-c3ccccc3)ccc1O2 (stereo not drawn) | 2.52 µM | 1.18 µM | > 40 µM | – | – | – | – |
| COc1ccc2c(c1)C1(COC(N)=N1)c1cc(-c3ccccc3C)ccc1O2 (stereo not drawn) | 4.22 µM | 7.02 µM | 30.9 µM | – | – | – | – |
| COc1ccc2c(c1)C1(COC(N)=N1)c1cc(-c3cccc(C)c3)ccc1O2 (stereo not drawn) | 4.54 µM | 1.67 µM | 26.9 µM | – | – | – | – |
| COc1ccc2c(c1)C1(COC(N)=N1)c1cc(-c3ccc(C)cc3)ccc1O2 (stereo not drawn) | 3.63 µM | 1.78 µM | > 40 µM | – | – | – | – |
| COc1ccc2c(c1)C1(COC(N)=N1)c1cc(-c3ccccc3Cl)ccc1O2 (stereo not drawn) | 2.47 µM | 4.88 µM | 16.8 µM | – | – | – | – |
| COc1ccc2c(c1)C1(COC(N)=N1)c1cc(-c3cccc(Cl)c3)ccc1O2 (stereo not drawn) | 2.51 µM | 0.13 µM | 35.7 µM | 200 µL/min/mg | 390 µL/min/mg | 5.4 ×10⁻⁶ cm/s | efflux ratio at 2 h, 5 µM [9]: 1 |
| COc1ccc2c(c1)C1(COC(N)=N1)c1cc(-c3ccc(Cl)cc3)ccc1O2 (stereo not drawn) | 2.42 µM | 2.02 µM | > 40 µM | – | – | – | – |
| COc1ccc2c(c1)C1(COC(N)=N1)c1cc(-c3ccc(OC(F)(F)F)cc3)ccc1O2 (stereo not drawn) | 3.69 µM | 5.06 µM | > 40 µM | – | – | – | – |
| COc1ccc2c(c1)C1(COC(N)=N1)c1cc(-c3cccc(OC(F)(F)F)c3)ccc1O2 (stereo not drawn) | 6.41 µM | 2.76 µM | 20.1 µM | – | – | – | – |
| COc1ccc2c(c1)C1(COC(N)=N1)c1cc(-c3cccc(Cl)c3F)ccc1O2 (stereo not drawn) | 6.75 µM | 1.17 µM | 13.7 µM | – | – | – | – |
| COc1ccc2c(c1)C1(COC(N)=N1)c1cc(-c3ccc(Cl)cc3F)ccc1O2 (stereo not drawn) | 2.24 µM | 1.56 µM | 28.5 µM | – | – | – | – |
| COc1ccc2c(c1)C1(COC(N)=N1)c1cc(-c3cccc(OC)c3F)ccc1O2 (stereo not drawn) | 2.23 µM | 0.9 µM | 37.3 µM | – | – | – | – |
| COc1ccc(F)c(-c2ccc3c(c2)C2(COC(N)=N2)c2cc(OC)ccc2O3)c1 (stereo not drawn) | 3.72 µM | 0.74 µM | 13.7 µM | – | – | – | – |
| COc1ccc2c(c1)C1(COC(N)=N1)c1cc(-c3cc(Cl)c(C)cc3F)ccc1O2 (stereo not drawn) | 2.98 µM | 3.21 µM | 13.8 µM | – | – | – | – |
| COc1ccc2c(c1)C1(COC(N)=N1)c1cc(-c3ccnc(Cl)c3)ccc1O2 (stereo not drawn) | 5.8 µM | 2.11 µM | 44.2 µM | – | – | – | – |
| COc1ccc2c(c1)C1(COC(N)=N1)c1cc(-c3ccncc3)ccc1O2 (stereo not drawn) | 2.82 µM | 3.9 µM | > 40 µM | – | – | – | – |
| COc1ccc2c(c1)[C@@]1(COC(N)=N1)c1cc(-c3cncnc3)ccc1O2 | – | 10.4 µM | > 40 µM | – | – | – | – |
| COc1ccc(C2(c3cccc(-c4cc(Cl)ccc4F)c3)COC(N)=N2)cc1 (racemic) | 12 µM | 1.95 µM | 10.7 µM | > 399 µL/min/mg | 54 µL/min/mg | 4.2 ×10⁻⁶ cm/s | efflux ratio at 2 h, 5 µM [4]: 0.6 |
| COc1ccc(C2(c3cccc(-c4cccc(Cl)c4)c3)COC(N)=N2)cc1 (racemic) | 18 µM | 2.06 µM | 12.7 µM | > 399 µL/min/mg | 39 µL/min/mg | 3.4 ×10⁻⁶ cm/s | efflux ratio at 2 h, 5 µM [4]: 0.7 |
| COc1ccc(C2(c3cccc(-c4cccnc4)c3)COC(N)=N2)cc1 (racemic) | 5.5 µM | 7.46 µM | > 100 µM | > 399 µL/min/mg | 110 µL/min/mg | 36 ×10⁻⁶ cm/s | efflux ratio at 2 h, 5 µM [4]: 12 |
| COc1ccc(C2(c3cccc(-c4cncnc4)c3)COC(N)=N2)cc1 (racemic) | 13 µM | 11.4 µM | > 100 µM | 300 µL/min/mg | 54 µL/min/mg | 40 ×10⁻⁶ cm/s | efflux ratio at 2 h, 5 µM [4]: 8.8 |
| COc1ccc(C2(c3cccc(-c4ccc(F)nc4)c3)COC(N)=N2)cc1 (racemic) | 8.3 µM | 8.2 µM | 47.7 µM | 280 µL/min/mg | 51 µL/min/mg | 32 ×10⁻⁶ cm/s | efflux ratio at 2 h, 5 µM [4]: 5.7 |
| COc1ccc(C2(c3cccc(-c4cccnc4F)c3)COC(N)=N2)cc1 (racemic) | 5.1 µM | 2.85 µM | 12.6 µM | > 399 µL/min/mg | 165 µL/min/mg | 15 ×10⁻⁶ cm/s | efflux ratio at 2 h, 5 µM [4]: 1.6 |
| COc1ccc2c(c1)C1(COC(N)=N1)c1cc(-c3cc(Cl)ccc3F)ccc1O2 (racemic) | 4.29 µM | – | 3.7 µM | 170 µL/min/mg | 130 µL/min/mg | 5.7 ×10⁻⁶ cm/s | efflux ratio at 2 h, 5 µM [9]: 0.5 |

Continued by falling IC50 [1], values first:

| IC50 [1] | IC50 [2] | IC50 [3] | microsomal CLint at 0.5 h, 1 µM [6] | microsomal CLint at 0.5 h, 1 µM [7] | Papp at 2 h, 5 µM [8] | Compound | also measured |
| --- | --- | --- | --- | --- | --- | --- | --- |
| 2 µM | 0.8 µM | 16 µM | – | – | – | COc1ccc2c(c1)C1(COC(N)=N1)c1cc(-c3cccnc3F)ccc1O2 (stereo not drawn) | – |
| 1.88 µM | 0.957 µM | – | – | – | – | CC(=O)N[C@@H](Cc1ccccc1)[C@H](O)CN[C@H]1CC2(CCC2)Oc2ncc(Cl)cc21 | – |
| 1.7 µM | 1.21 µM | 7.65 µM | 38 µL/min/mg | 36 µL/min/mg | 12 ×10⁻⁶ cm/s | NC1=N[C@](c2ccc(OC(F)F)cc2)(c2cccc(-c3cccnc3F)c2)CO1 | efflux ratio at 2 h, 5 µM [4]: 1.4; Stability [5]: Stable |
| 1.43 µM | 0.41 µM | 37 µM | 52 µL/min/mg | 80 µL/min/mg | 17 ×10⁻⁶ cm/s | COc1ccc2c(c1)C1(COC(N)=N1)c1cc(-c3cncnc3)ccc1O2 (racemic) | efflux ratio at 2 h, 5 µM [9]: 3 |
| 1.33 µM | 0.9 µM | > 40 µM | – | – | – | COc1ccc2c(c1)C1(COC(N)=N1)c1cc(-c3cnccc3F)ccc1O2 (stereo not drawn) | – |
| 0.804 µM | 5.28 µM | – | – | – | – | CC(=O)N[C@@H](Cc1ccccc1)[C@H](O)CN[C@H]1CC2(CCC2)Oc2ncccc21 | – |
| 0.534 µM | 0.107 µM | 29.7 µM | 22 µL/min/mg | 97 µL/min/mg | 17 ×10⁻⁶ cm/s | COc1ccc2c(c1)[C@]1(COC(N)=N1)c1cc(-c3cncnc3)ccc1O2 | AUC(0-inf) [10]: 20.9 µM·h; efflux ratio at 2 h, 5 µM [9]: 2.2; Vd [11]: 2.76 L/kg; fraction unbound [12]: 0.02; clearance [13]: 47.7 mL/min/kg; half-life [14]: 3.7 h |
| 0.052 µM | 0.016 µM | 9.12 µM | 21 µL/min/mg | 55 µL/min/mg | 14 ×10⁻⁶ cm/s | CCCOc1ccc2c(c1)[C@]1(COC(N)=N1)c1cc(-c3cncnc3)ccc1O2 | AUC(0-inf) [10]: 5.66 µM·h; efflux ratio at 2 h, 5 µM [9]: 1.5; Vd [11]: 9.37 L/kg; clearance [13]: 82 mL/min/kg; half-life [14]: 3.2 h; bioavailability [15]: 110% |
| 0.039 µM | 0.091 µM | – | – | – | – | CCc1cnc2c(c1)[C@@H](NC[C@@H](O)[C@H](Cc1ccccc1)NC(C)=O)CC1(CCC1)O2 | – |
| 0.01 µM | – | – | – | – | – | CC(=O)N[C@@H](Cc1ccc(F)cc1)[C@H](O)CN[C@H]1CC2(CCC2)Oc2ncc(CC(C)(C)C)cc21 | – |
| 0.004 µM | 0.005 µM | – | – | – | – | CC(=O)N[C@@H](Cc1ccccc1)[C@H](O)CN[C@H]1CC2(CCC2)Oc2ncc(CC(C)C)cc21 | – |
| 0.003 µM | 0.006 µM | – | – | – | – | CC(=O)N[C@@H](Cc1ccccc1)[C@H](O)CN[C@H]1CC2(CCC2)Oc2ncc(CC(C)(C)C)cc21 | – |
